What was measured:
[1] = target: T1, recombinant human cannabinoid 1 receptor (CB1) (Homo sapiens, UniProt P21554); assay: In vitro determination of antagonism to CB1-receptor, [35S]GTPγS binding assay; format: biochemical; conditions: compound 1 μM with agonist WIN 55,212-2 (3 nM to 3 μM); 100% = difference between maximal WIN 55,212-2 effect alone and plus Rimonabant (1 μM); CHO-hCB1 membranes
T1 construct: expressed in transfected cells; membrane preparation
Protocol: VI. In vitro Determination of Antagonism to CB1-Receptor
In order to obtain cells, culture flasks were washed twice with phosphate buffered saline and scraped. Then, cells were collected by centrifugation (200×g, 10 min) and stored dry at −80° C.
[^35S]GTPγS Binding Assay:
The reaction was performed in 96-well plates. […] Filter plates were dried and 30 μl of scintillation liquid was added, Radioactivity was determined using a Wallac Microbeta Trilux. Each experiment was performed at least in duplicate.
The average of basal [^35S]GTPγS binding was subtracted from all binding data.

[2] = Effect of continued administration on body weight in rats; format: in vivo
Protocol: V. Determination of the Effect of Continued Administration of the Inventive Compounds on Body Weight in Rats
The weight of the animals was measured for 36 days, and the data grouped into 3 periods for analysis: Period 1, days 1-8 (period for adaptation of the animals to the environmental conditions: one week without treatment plus first day of treatment); Period 2. days 9-22 (treatment period: two weeks); Period 3, days 23-36 (escape treatment period: two weeks). The administration of the drugs started on day 8, immediately after the animal was weighted, and finished on day 21. The treatment period ranges between one day after first administration and one day after last administration. The drugs were administered i.p. once daily. For comparative purposes, absolute weights were transformed into relative percentages (each weight was divided by that of day 8 and multiplied by 100). […] All results are expressed as mean±S.E.M.
The dependence of body-weight (expressed as a percentage relative to day 8) on time (number of lays after inclusion in the study) and treatment was assessed by a two-way (time, treatment) analysis of variance (ANOVA) with repeated measures on the time factor. […] The differences between pairs of curves (treatments) were analyzed using appropriate contrasts within the ANOVA test. […]

[3] = Chronic administration to animals made obese by a simplified cafeteria diet; format: in vivo, rats

T1 sequence (P21554 whole entry): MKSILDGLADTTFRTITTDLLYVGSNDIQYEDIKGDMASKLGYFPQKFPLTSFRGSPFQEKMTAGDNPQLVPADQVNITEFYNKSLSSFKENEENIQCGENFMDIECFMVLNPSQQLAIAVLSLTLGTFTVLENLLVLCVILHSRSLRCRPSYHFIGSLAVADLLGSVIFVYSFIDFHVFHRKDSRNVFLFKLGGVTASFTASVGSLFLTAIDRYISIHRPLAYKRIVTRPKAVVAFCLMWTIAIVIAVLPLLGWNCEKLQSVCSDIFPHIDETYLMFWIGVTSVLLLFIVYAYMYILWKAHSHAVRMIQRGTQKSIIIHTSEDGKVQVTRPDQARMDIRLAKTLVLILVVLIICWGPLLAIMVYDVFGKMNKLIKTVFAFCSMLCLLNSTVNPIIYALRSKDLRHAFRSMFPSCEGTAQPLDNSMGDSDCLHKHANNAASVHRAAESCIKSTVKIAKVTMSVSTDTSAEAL

Row | SMILES | Antagonism [%] [1] | body weight during treatment period ([2]; 10 mg/kg i.p. once daily, days 9-22, FIG. 1) | body weight in post-treatment period ([2]; after 10 mg/kg i.p. once daily, days 23-36, FIG. 1) | body weight versus vehicle-treated controls ([3]; after 28 days of drug treatment, rats) | body weight ([3]; chronic administration, animals made obese by cafeteria diet (high-fat diet, chocolate, ground peanuts)) | effect on plasma lipids (triacylglycerol and glycerol) ([3]; following chronic administration, seems independent of weight loss)
1 | Cl.O=C(NN1CCCCC1)C1=NN(c2ccc(Cl)cc2Cl)[C@H](c2ccc(Cl)cc2)C1 [A-Hydrochloride, Hydrochloride salt of (S)-N-piperidinyl-5-(4-chlorophenyl)-1-(2,4-dichlorophenyl)-4,5-dihydro-1H-pyrazole-3-carboxamide] | −7% |  |  |  |  | 
2 | O=C(NN1CCCCC1)C1=NN(c2ccc(Cl)cc2Cl)[C@H](c2ccc(Cl)cc2)C1 [A, (S)-N-piperidinyl-5-(4-chlorophenyl)-1-(2,4-dichlorophenyl)-4,5-dihydro-1H-pyrazole-3-carboxamide] | 43% | significant action during the treatment period | relatively fast recovery of weight | lower than those of the vehicle-treated controls | significantly decreased body weight | positive effect on plasma lipids
